Measured values from patent publication US10577373B2, “TYK2 inhibitors and uses thereof” (Nimbus Lakshmi, Inc., priority 2017, dated 2020).

Each compound was assayed on IL-12 induced STAT4 phophorylation mediated by Tyk2/JAK2 (heterodimeric complex) (assay: IL-12 Induced pSTAT4 in Human PBMC). Settings: 1.7 ng/mL IL-12.
Type: cell-based
Text: The IL-12 Induced pSTAT4 assay evaluates the inhibition of IL-12 induced STAT4 phophorylation mediated by Tyk2/JAK2 (heterodimeric complex).

| IC50 | SMILES |
| --- | --- |
| 0.1 to 0.5 µM | CNc1cc(Nc2cccn(-c3ccc(F)cc3)c2=O)nc2c(C(N)=O)cnn12 [I-9] |
| < 0.1 µM | CNc1cc(Nc2cccn([C@@H]3CCCOC3)c2=O)nc2c(C(=O)NC3CC3)cnn12 [I-351] |
| < 0.1 µM | CNc1cc(Nc2cccn([C@H]3CC[C@@](C)(O)CC3)c2=O)nc2c(C(=O)N[C@H]3C[C@H]3F)cnn12 [I-370] |
| 0.1 to 0.5 µM | CNc1cc(Nc2cccn([C@H]3CC[C@](C)(O)CC3)c2=O)nc2c(C(=O)NC3CC3)cnn12 [I-371] |
| < 0.1 µM | CNc1cc(Nc2cccn([C@H]3CC[C@](C)(O)CC3)c2=O)nc2c(C(=O)N[C@H]3C[C@H]3F)cnn12 [I-372] |
| > 1 µM | CNc1cc(Nc2cccn(-c3nn(C)cc3C)c2=O)nc2c(C(=O)NC3CC3)cnn12 [I-404] |
| 0.1 to 0.5 µM | CNc1cc(Nc2cccn(-c3nn(C)cc3C)c2=O)nc2c(C(=O)N[C@H]3C[C@H]3F)cnn12 [I-405] |
| < 0.1 µM | [2H]C([2H])([2H])Oc1ncccc1Nc1cc(NC)n2ncc(C(=O)N[C@H]3CC[C@@H]3O)c2n1 [I-411] |
| < 0.1 µM | CNc1cc(Nc2cccn([C@H]3CCC[C@@H](OC)C3)c2=O)nc2c(C(=O)NCC(C)(C)CO)cnn12 [I-861] |

The compounds below were run on GM-CSF induced STAT5 phosphorylation mediated by the JAK2/JAK2 homdimeric complex (assay: GM-CSF Induced pSTAT5 in Human PBMC). Settings: Homo sapiens, PBMC, 20 min, read-out: PBMC_GMCSF_pSTAT5 IC50, human PBMC; GM-CSF 5 ng/mL for 20 minutes; pSTAT5.
Text: Human PBMC are isolated from buffy coat and are stored frozen for assays as needed.

| SMILES | IC50 |
| --- | --- |
| CNc1cc(Nc2cccn([C@H]3CCC[C@H](O)C3)c2=O)nc2c(C(=O)N[C@H]3CC[C@@H]3OC)cnn12 [I-1063] | > 50 µM |
| CNc1cc(Nc2cccn(-c3cnn(C)c3F)c2=O)nc2c(C(=O)N[C@H]3CC[C@@H]3OC)cnn12 [I-1066] | > 50 µM |
| CNc1cc(Nc2cccn([C@H]3[C@@H]4COC[C@@H]43)c2=O)nc2c(C(=O)N[C@H]3CC[C@@H]3OC)cnn12 [I-1088] | > 50 µM |
| CNc1cc(Nc2cccn([C@@H]3CC[C@H]3O)c2=O)nc2c(C(=O)N[C@H]3CC[C@@H]3OC)cnn12 [I-1093] | > 50 µM |
| CNc1cc(Nc2cccn([C@H]3CC[C@@H]3O)c2=O)nc2c(C(=O)N[C@H]3CC[C@@H]3OC)cnn12 [I-1094] | > 50 µM |
| CNc1cc(Nc2cccn([C@@H]3CCCN(CCF)C3)c2=O)nc2c(C(=O)N[C@@H]3CC[C@H]3OC)cnn12 [I-1095] | > 50 µM |
| CNc1cc(Nc2cccn([C@@H]3CCN(CCF)C3)c2=O)nc2c(C(=O)NC3CCC3OC)cnn12 (stereo partly drawn) [I-1096, 5-((1-((R)—1-(2-fluoroethyl)pyrrolidin-3-yl)-2-oxo-1,2-dihydropyridin-3-yl)amino)-N-(2-methoxycyclobutyl)-7-(methylamino)pyrazolo[1,5-a]pyrimidine-3-carboxamide] | > 50 µM |
| CNc1cc(Nc2cccn([C@H]3CCCC[C@H]3OC)c2=O)nc2c(C(=O)N[C@H]3CC[C@@H]3OC)cnn12 [I-1097] | > 50 µM |
| CNc1cc(Nc2cccn([C@H]3CCC[C@H](OC)C3)c2=O)nc2c(C(=O)N[C@H]3CC[C@@H]3OC)cnn12 [I-1098] | > 50 µM |
| CNc1cc(Nc2cccn([C@@H]3CCC[C@@H](OC)C3)c2=O)nc2c(C(=O)N[C@H]3CC[C@@H]3OC)cnn12 [I-1099] | > 50 µM |
| CNc1cc(Nc2cccn([C@H]3CCC[C@H]3O)c2=O)nc2c(C(=O)N[C@H]3CC[C@@H]3OC)cnn12 [I-1101] | > 50 µM |
| CNc1cc(Nc2cccn([C@H]3CC[C@](C)(OC)CC3)c2=O)nc2c(C(=O)N[C@H]3CC[C@@H]3OC)cnn12 [I-1105] | > 50 µM |

Further lines, results first:

| IC50 | SMILES |
| --- | --- |
| > 12.5 µM | CNc1cc(-c2cn(C3CC3)c3ncccc23)nc2c(C(=O)N[C@H]3CC[C@@H]3OC)cnn12 (stereo in doubt) [I-1067, 5-(1-cyclopropyl-1H-pyrrolo[2,3-b]pyridin-3-yl)-N-(2-methoxycyclobutyl)-7-(methylamino)pyrazolo[1,5-a]pyrimidine-3-carboxamide] |
| > 50 µM | [2H]C([2H])([2H])Oc1ncccc1Nc1cc(NC)n2ncc(C(=O)NC3CC4(COC4)C3)c2n1 [I-417, 5-((2-(methoxy-d3)pyridin-3-yl)amino)-7-(methylamino)-N-(2-oxaspiro[3.3]heptan-6-yl)pyrazolo[1,5-a]pyrimidine-3-carboxamide] |
| > 50 µM | CNc1cc(Nc2cccn([C@H]3CCCC[C@H]3O)c2=O)nc2c(C(=O)NC3CC3)cnn12 [I-878] |
| > 12.5 µM | CNc1cc(Nc2cc(Cl)cn(-c3cnn(C)c3F)c2=O)nc2c(C(=O)NC3CC3)cnn12 [I-955] |
| > 50 µM | CNc1cc(Nc2cccn([C@@H]3CCC[C@@H](OC)C3)c2=O)nc2c(C(=O)NC3CC3)cnn12 [I-957] |
| > 50 µM | CNc1cc(Nc2cccn([C@H]3CCC[C@H](OC)C3)c2=O)nc2c(C(=O)NCC(C)(C)CO)cnn12 [I-958] |
| > 50 µM | CNc1cc(Nc2cccn([C@H]3CCC[C@H]3O)c2=O)nc2c(C(=O)NC3CC3)cnn12 [I-963] |
| > 50 µM | CNc1cc(Nc2cccn([C@H]3CCC[C@H]3O)c2=O)nc2c(C(=O)N[C@@H]3C[C@@H]3F)cnn12 [I-965] |
| > 50 µM | CNc1cc(Nc2cccc(N3CCCC3=O)n2)nc2c(C(=O)N[C@H]3CC[C@H]3O)cnn12 [I-969] |
| > 50 µM | CNc1cc(Nc2cccn(-c3ccccn3)c2=O)nc2c(C(=O)N[C@H]3CC[C@@H]3O)cnn12 [I-971] |
| > 50 µM | CNc1cc(Nc2cccn([C@H]3CCC[C@@H](OC)C3)c2=O)nc2c(C(=O)N[C@@H]3CC[C@H]3O)cnn12 [I-993] |
| > 50 µM | CNc1cc(Nc2cccn([C@H]3CCC[C@@H](OC)C3)c2=O)nc2c(C(=O)N[C@H]3CC[C@@H]3OC)cnn12 [I-996] |
| > 50 µM | CNc1cc(Nc2cccn([C@@H]3CC[C@H]3O)c2=O)nc2c(C(=O)N[C@@H]3C[C@@H]3F)cnn12 [I-999] |
| > 12.5 µM | CNc1cc(Nc2cccn(-c3cccc(F)c3)c2=O)nc2c(C(=O)N[C@H]3CC[C@H]3O)cnn12 [I-1004] |
| > 50 µM | CNc1cc(Nc2cccn([C@H]3CCC[C@H](OC)C3)c2=O)nc2c(C(=O)NCC3(CO)CC3)cnn12 [I-1010] |
| > 12.5 µM | CNc1cc(-c2cn(C(C)C)c3ncc(F)cc23)nc2c(C(=O)N[C@H]3CC[C@H]3O)cnn12 [I-1013, 5-(5-fluoro-1-isopropyl-1-pyrrolo[2,3-b]pyridin-3-yl)-N-(2-hydroxycyclobutyl)-7-(methylamino)pyrazolo[1,5-a]pyrimidine-3-carboxamide] |

| IC50 | SMILES |
| --- | --- |
| > 12.5 µM | CNc1cc(Nc2cccn(-c3cnco3)c2=O)nc2c(C(=O)N[C@H]3CC[C@H]3O)cnn12 [I-1017] |
| > 12.5 µM | CNc1cc(Nc2cccn([C@@H]3CC[C@H]3OC)c2=O)nc2c(C(=O)N[C@@H]3C[C@@H]3F)cnn12 [I-1022] |
| > 50 µM | CNc1cc(Nc2cccn([C@H]3CCC[C@H](OC)C3)c2=O)nc2c(C(=O)NC3CC3)cnn12 [I-1025] |
| > 2.5 µM | CNc1cc(Nc2cccn([C@@H]3CCC[C@@H](O)C3)c2=O)nc2c(C(=O)N[C@@H]3C[C@@H]3F)cnn12 [I-1029] |
| > 2.5 µM | CNc1cc(Nc2cccn(-c3ccccc3F)c2=O)nc2c(C(=O)N[C@H]3CC[C@H]3O)cnn12 [I-1035] |
| > 50 µM | CNc1cc(Nc2cccn(-c3ccccc3F)c2=O)nc2c(C(=O)N[C@H]3CC[C@@H]3O)cnn12 [I-1038] |
| > 2.5 µM | CNc1cc(Nc2cccn([C@H]3CCC[C@H](OC)C3)c2=O)nc2c(C(=O)N[C@@H]3C[C@@H]3F)cnn12 [I-1042] |
| > 2.5 µM | CNc1cc(-c2cn(C3CCOCC3)c3ncccc23)nc2c(C(=O)NC3CCC3O)cnn12 (stereo not drawn) [I-1048, N-(2-hydroxycyclobutyl)-7-(methylamino)-5-(1-(tetrahydro-2H-pyran-4-yl)-1H-pyrrolo[2,3-b]pyridin-3-yl)pyrazolo[1,5-a]pyrimidine-3-carboxamide] |
| > 50 µM | CNc1cc(Nc2cccn([C@H]3CCN(CCF)C3)c2=O)nc2c(C(=O)N[C@H]3CC[C@@H]3OC)cnn12 [I-1050, 5-((1-((S)-1-(2-fluoroethyl)pyrrolidin-3-yl)-2-oxo-1,2-dihydropyridin-3-yl)amino)-N-((1 S,2S)-2-methoxycyclobutyl)-7-(methylamino)pyrazolo[1,5-a]pyrimidine-3-carboxamide] |
| > 50 µM | CNc1cc(Nc2cccc3ocnc23)nc2c(C(=O)NC3CCC3OC)cnn12 (stereo not drawn) [I-1051, 5-(benzo[d]oxazol-4-ylamino)-N-(2-methoxycyclobutyl)-7-(methylamino) pyrazolo[1,5-a]pyrimidine-3-carboxamide] |
| > 50 µM | CNc1cc(Nc2cccn3ccnc23)nc2c(C(=O)N[C@H]3CC[C@@H]3OC)cnn12 [I-1052] |
| > 12.5 µM | CNc1cc(-c2cn(C(C)C)c3ncc(F)cc23)nc2c(C(=O)N[C@H]3CC[C@@H]3OC)cnn12 [I-1053, 5-(5-fluoro-1-isopropyl-1H-pyrrolo[2,3-b]pyridin-3-yl)-N-((1S,2S)-2-methoxycyclobutyl)-7-(methylamino)pyrazolo[1,5-a]pyrimidine-3-carboxamide] |
| > 50 µM | CNc1cc(Nc2cccn([C@H]3CCCC[C@H]3O)c2=O)nc2c(C(=O)N[C@@H]3CC[C@H]3OC)cnn12 [I-1057] |
| > 50 µM | CNc1cc(Nc2cccn([C@H]3CCCN(CCF)C3)c2=O)nc2c(C(=O)N[C@@H]3CC[C@H]3OC)cnn12 [I-1059] |
| > 12.5 µM | CNc1cc(Nc2cccn(-c3ncc(C)s3)c2=O)nc2c(C(=O)N[C@@H]3CC[C@H]3O)cnn12 [I-1070] |
| > 2.5 µM | CNc1cc(Nc2cccn3cnnc23)nc2c(C(=O)N[C@H]3CC[C@@H]3OC)cnn12 [I-1102] |

Same assay, conditions: read-out: PBMC_GMCSF_pSTAT5 IC50; human PBMC; GM-CSF 5 ng/mL for 20 minutes; pSTAT5

| IC50 | SMILES |
| --- | --- |
| > 50 µM | CNc1cc(Nc2cccn([C@H]3CC[C@](C)(OC)CC3)c2=O)nc2c(C(=O)N[C@@H]3CC[C@H]3O)cnn12 [I-962] |
| > 50 µM | CNc1cc(Nc2cccn(-c3ncc(C)s3)c2=O)nc2c(C(=O)N[C@@H]3CC[C@@H]3O)cnn12 [I-1073] |
| > 50 µM | CNc1cc(Nc2cccn([C@@H]3CCC[C@H](OC)C3)c2=O)nc2c(C(=O)N[C@@H]3CC[C@H]3OC)cnn12 [I-1082] |
| > 2.5 µM | CNc1cc(Nc2cccn([C@H]3CC[C@](C)(OC)CC3)c2=O)nc2c(C(=O)N[C@@H]3CC[C@H]3O)cnn12 [I-1107] |
